Counter-ions that a name gives are not always drawn.
Molecular target: α7-subtype of nicotinic receptors (Rattus norvegicus, UniProt Q05941)
Test: biochemical
Assay type: binding

α7-subtype of nicotinic receptors, sequence (Q05941 23-502): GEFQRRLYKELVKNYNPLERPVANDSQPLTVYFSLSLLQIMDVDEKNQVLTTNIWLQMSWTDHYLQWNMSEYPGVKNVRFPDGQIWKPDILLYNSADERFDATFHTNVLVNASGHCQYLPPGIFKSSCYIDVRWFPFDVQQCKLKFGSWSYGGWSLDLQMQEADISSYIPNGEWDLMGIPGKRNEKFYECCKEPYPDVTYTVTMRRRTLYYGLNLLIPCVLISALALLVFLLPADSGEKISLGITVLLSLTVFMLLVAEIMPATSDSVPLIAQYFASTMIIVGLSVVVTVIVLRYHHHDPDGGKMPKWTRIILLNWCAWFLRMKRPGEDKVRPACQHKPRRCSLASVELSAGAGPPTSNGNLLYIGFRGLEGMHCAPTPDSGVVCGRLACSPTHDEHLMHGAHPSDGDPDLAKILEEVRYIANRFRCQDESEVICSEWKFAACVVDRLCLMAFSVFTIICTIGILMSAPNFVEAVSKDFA

SMILES: O=C(Nc1cnc(N2CCN3CCC2CC3)nc1)c1ccccc1 [Compound 1, N-[2-(1,4-Diaza-bicyclo[3.2.2]non-4-yl)-pyrimidin-5-yl]-benzamide hydrochloric acid salt]
- IC50: < 100 nM
